# Assay results published in US7557112B2, “Aromatic-ring-fused pyrimidine derivative” (Astellas Pharma Inc., priority 2004, dated 2009).
# Key:
# ICR mice = test: Oral glucose tolerance test on normal mouse; type: in vivo; conditions: at 30 minutes after glucose loading, relative to control group
# Description: (2) Oral Glucose Tolerance Test on Normal Mouse
# In this assay, preventive activities of test compounds against hyperglycemia following glucose loading were examined using normal mice and nateglinide, a commercially available oral anti-hyperglycemic agent, as a reference compound. The assay procedure is given below.
# ICR mice (male, 6 weeks old) that had been preliminary bred for one week were fasted for 18 to 20 hours to use as test animals. Each test compound was dissolved in 0.5% methylcellulose solution and orally administered at 3 mg/kg (10 mg/kg for nateglinide) before glucose loading. Timing to administer the test compound was selected to be optimal for each test compound, which was 10 minutes before glucose loading for the compounds of the present invention or 30 minutes before glucose loading for nateglinide, which was a reference compound. The hypoglycemic rate (%) at 30 minutes after glucose loading was measured relative to the control group.
# MIN6B1 cell = test: Assay for promoting activity on insulin secretion; type: cell-based, mouse; conditions: 10 μM test compound, KRB-HEPES with 16.8 mM glucose, 37° C., 22 minutes; relative to DMSO = 100%
# Description: (1) Assay for Promoting Activity on Insulin Secretion
# In this assay, promoting activities on insulin secretion of the test compounds were studied using MIN6B1 cell, which was a strain of mouse pancreatic β-cells, and glibenclamide, which was a commercially available insulin secretagogue, as a reference compound. The assay procedure is given below.
# MIN6B1 cells were seeded on a 48-well plate at a concentration of 1×10^5 cells/well (0.25 ml) (The medium was prepared by adding FCS (fetal calf serum) to DMEM (Dulbecco's Modified Eagle Medium) containing 25 mM glucose such that the FCS concentration became 10%). After two days, the medium was suctioned by an aspirator, each well washed four times with 0.2 ml of KRE-HEPES buffer [Kregs-Ringer-bicarbonate-N-2-hydroxyethylpiperazine-N′-2-ethanesulfonic acid; 130 mM NaCl, 4.7 mM KCl, 1.2 mM KH2PO4, 1.2 mM MgCl2.6H2O, 0.25 mM CaCl2.2H2O, 2.5 mM NaHCO3, 0.5% BSA, and 10 mM N-2-hydroxyethylpiperazine-N′-2-ethanesulfonic acid (pH 7.4)] containing 2.8 mM glucose warmed to 37° C., 0.2 ml of said buffer was again added, and the cells were incubated at 37° C. for 30 to 60 minutes. […] The samples were pipetted and diluted by 25 to 51 times, and the insulin concentrations were analyzed using an insulin assay kit (Rat Insulin [^125I] Biotrak Assay System with Magnetic Separation; Amersham BioScience K.K.). […]
smiles,measurement,setting,value
Fc1cc(-c2nc(N3CCSC3)c3sccc3n2)c(F)cc1Cl [Example 99],"Hypoglycemic rate, %","ICR mice; 3 mg/kg orally, 10 minutes before glucose loading",36%
"COc1ccc(Cl)cc1C(=O)NCCc1ccc(S(=O)(=O)NC(=O)NC2CCCCC2)cc1 [Glibenclamide, glibenclamide]","Promotion activity on insulin secretion, %",MIN6B1 cell,122%
"CC(C)[C@H]1CC[C@H](C(=O)N[C@H](Cc2ccccc2)C(=O)O)CC1 [Nateglinide, nateglinide]","Hypoglycemic rate, %","ICR mice; 10 mg/kg orally, 30 minutes before glucose loading",26%
